Measurements reported in PMC8032764 (Scientific Reports, 2021).
Where two headings read alike, the source gives them in different places.

Legend:
Adrenergic β1 = system: T1, Adrenergic β1; assay: Cerep binding; design: species or system human; details: 10 μM; [3H](-)CGP 12177; hum. recomb. (HEK-293)
T1 construct: host or cells: HEK-293

NMDA (PCP) = assay: Cerep binding; details: 10 μM; [3H]TCP; rat cerebral cortex
Dopamine transporter = system: T2, Dopamine transporter; assay: Cerep binding; design: species or system human; details: 10 μM; [3H]BTCP; hum. recomb. (CHO)
T2 construct: host or cells: CHO

GABAA-α5 receptors = target: T3, GABAA-α5 receptors (Homo sapiens, UniProt P18507+P31644); assay: [11C]-Ro 15-4513 PET receptor occupancy study in healthy volunteers; format: in vivo; details: for EC50: Emax model, nine subjects
T3 construct: occupancy at the GABAA-α5 subunit-containing receptors in the human brain after oral dosing; from tissue; host or cells: brain of healthy human volunteers, in vivo PET
T3 sequence (P31644 32-462): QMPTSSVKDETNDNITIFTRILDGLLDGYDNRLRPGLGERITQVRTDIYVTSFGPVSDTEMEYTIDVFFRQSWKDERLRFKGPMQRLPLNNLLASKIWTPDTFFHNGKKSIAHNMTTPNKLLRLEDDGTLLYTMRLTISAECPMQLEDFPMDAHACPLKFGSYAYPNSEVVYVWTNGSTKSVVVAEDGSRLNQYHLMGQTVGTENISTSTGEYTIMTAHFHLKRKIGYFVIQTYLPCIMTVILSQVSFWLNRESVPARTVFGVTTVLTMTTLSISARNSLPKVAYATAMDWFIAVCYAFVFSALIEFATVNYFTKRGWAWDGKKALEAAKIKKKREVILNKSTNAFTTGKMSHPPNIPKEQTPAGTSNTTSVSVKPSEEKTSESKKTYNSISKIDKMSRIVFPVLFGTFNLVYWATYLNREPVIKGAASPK
T3 sequence (P18507 40-467 limits assumed): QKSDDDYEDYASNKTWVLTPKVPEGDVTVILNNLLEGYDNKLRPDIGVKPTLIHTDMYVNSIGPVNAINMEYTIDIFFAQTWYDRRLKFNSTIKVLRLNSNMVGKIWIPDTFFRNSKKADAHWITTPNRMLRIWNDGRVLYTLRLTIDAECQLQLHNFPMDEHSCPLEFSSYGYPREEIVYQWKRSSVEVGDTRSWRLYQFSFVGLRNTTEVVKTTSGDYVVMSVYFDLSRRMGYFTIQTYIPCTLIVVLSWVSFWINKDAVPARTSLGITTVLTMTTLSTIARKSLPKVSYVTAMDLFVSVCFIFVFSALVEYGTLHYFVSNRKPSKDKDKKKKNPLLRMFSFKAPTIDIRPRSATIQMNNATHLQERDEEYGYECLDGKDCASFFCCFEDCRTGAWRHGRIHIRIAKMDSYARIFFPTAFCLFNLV
T3 sequence (P28472 26-473 partner): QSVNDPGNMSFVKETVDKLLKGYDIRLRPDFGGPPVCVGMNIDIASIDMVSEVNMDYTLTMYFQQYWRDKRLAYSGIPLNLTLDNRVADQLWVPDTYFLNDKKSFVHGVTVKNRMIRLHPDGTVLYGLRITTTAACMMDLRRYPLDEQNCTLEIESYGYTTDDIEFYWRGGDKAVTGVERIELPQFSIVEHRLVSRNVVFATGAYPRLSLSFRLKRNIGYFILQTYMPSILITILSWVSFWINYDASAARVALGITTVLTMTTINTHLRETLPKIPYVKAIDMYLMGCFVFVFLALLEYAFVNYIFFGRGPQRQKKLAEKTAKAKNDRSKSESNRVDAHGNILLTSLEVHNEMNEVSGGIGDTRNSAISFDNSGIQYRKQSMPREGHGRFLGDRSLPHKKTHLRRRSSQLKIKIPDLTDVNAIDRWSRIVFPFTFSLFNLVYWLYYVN
Description: The PET study was undertaken as part of Protocol BP25611 and after four protocol amendments was described as: “A single-center, single blind molecular and functional imaging study to assess GABAA-α5 receptor expression, occupancy and functional connectivity in the brains of individuals with Down syndrome and healthy controls following a single oral administration of RO5186582 or placebo”. Full details of the protocol can be found in the Supplementary Information. The study was registered on August 17, 2012 with clinicaltrials.gov identifier NCT01667367.
Subjects returned for a follow-up visit approximately 7 to 10 days after their last dose of study medication.
The study was single-blind, i.e., subjects were blinded to dose. Blood sampling was performed at four different timepoints starting 30 min before the post dose PET scan.
Tissue time activity curves were analyzed using the simplified reference tissue model (SRTM[71]), with a basis pursuit implementation of the SRTM[72], to directly estimate the binding potential (BPND) in all target regions. […] Therefore, the time-activity curve derived from the cerebellum was used as an input for SRTM analysis.
Occupancy in scan 2 was estimated as a fractional reduction in the relevant baseline BPND (see Eq. (3)).3 Occ=BPNDBaseline-BPNDBasmisanil/BPNDBaseline.
The pharmacokinetic/pharmacodynamic population for GABAA-α5 receptor occupancy consisted of data from 9 subjects.

[1] = subject 11010, 40 mg, 3.75 h prior to scan
[2] = subject 11020, 160 mg, 3.12 h prior to scan
[3] = subject 11021, 160 mg, 3.00 h prior to scan
[4] = subject 13010, 40 mg, 2.63 h prior to scan
[5] = subject 13030, 1000 mg, 4.75 h prior to scan
[6] = subject 13031, 1000 mg, 4.77 h prior to scan
[7] = subject 13040, 20 mg, 1.48 h prior to scan
[8] = subject 13041, 20 mg, 2.20 h prior to scan
[9] = subject 13050, 80 mg, 2.43 h prior to scan

Cc1onc(-c2ccc(F)cc2)c1COc1ccc(C(=O)N2CCS(=O)(=O)CC2)cn1 [basmisanil]
% Inhibition (Adrenergic β1): 6%
% Inhibition (NMDA (PCP)): 14%
% Inhibition (Dopamine transporter): 19%
EC50 (GABAA-α5 receptors; read-out: EC50 of receptor occupancy, free plasma concentration): 67 nM
EC50 (GABAA-α5 receptors; read-out: EC50 of receptor occupancy, total plasma concentration (converted)): ~1210 nM
Receptor occupancy, Accumbens (GABAA-α5 receptors; [1]): 52.1%
Receptor occupancy, Amygdala (GABAA-α5 receptors; [1]): 53.5%
Receptor occupancy, Anterior cingulate (GABAA-α5 receptors; [1]): 44.8%
Receptor occupancy, Hippocampus (GABAA-α5 receptors; [1]): 48.4%
Receptor occupancy, Insular cortex (GABAA-α5 receptors; [1]): 44.6%
Receptor occupancy, Mean (GABAA-α5 receptors; [1]): 48.68%
Receptor occupancy, Accumbens (GABAA-α5 receptors; [2]): 86.6%
Receptor occupancy, Amygdala (GABAA-α5 receptors; [2]): 91.4%
Receptor occupancy, Anterior cingulate (GABAA-α5 receptors; [2]): 75.6%
Receptor occupancy, Hippocampus (GABAA-α5 receptors; [2]): 87.2%
Receptor occupancy, Insular cortex (GABAA-α5 receptors; [2]): 75.2%
Receptor occupancy, Mean (GABAA-α5 receptors; [2]): 83.2%
Receptor occupancy, Accumbens (GABAA-α5 receptors; [3]): 87.0%
Receptor occupancy, Amygdala (GABAA-α5 receptors; [3]): 85.4%
Receptor occupancy, Anterior cingulate (GABAA-α5 receptors; [3]): 76.4%
Receptor occupancy, Hippocampus (GABAA-α5 receptors; [3]): 85.9%
Receptor occupancy, Insular cortex (GABAA-α5 receptors; [3]): 77.2%
Receptor occupancy, Mean (GABAA-α5 receptors; [3]): 82.38%
Receptor occupancy, Accumbens (GABAA-α5 receptors; [4]): 37.3%
Receptor occupancy, Amygdala (GABAA-α5 receptors; [4]): 40%
Receptor occupancy, Anterior cingulate (GABAA-α5 receptors; [4]): 32.7%
Receptor occupancy, Hippocampus (GABAA-α5 receptors; [4]): 41.3%
Receptor occupancy, Insular cortex (GABAA-α5 receptors; [4]): 32%
Receptor occupancy, Mean (GABAA-α5 receptors; [4]): 36.66%
Receptor occupancy, Accumbens (GABAA-α5 receptors; [5]): 89.5%
Receptor occupancy, Amygdala (GABAA-α5 receptors; [5]): 93.1%
Receptor occupancy, Anterior cingulate (GABAA-α5 receptors; [5]): 79.1%
Receptor occupancy, Hippocampus (GABAA-α5 receptors; [5]): 94.2%
Receptor occupancy, Insular cortex (GABAA-α5 receptors; [5]): 79.9%
Receptor occupancy, Mean (GABAA-α5 receptors; [5]): 87.16%
Receptor occupancy, Accumbens (GABAA-α5 receptors; [6]): 93.7%
Receptor occupancy, Amygdala (GABAA-α5 receptors; [6]): 97.4%
Receptor occupancy, Anterior cingulate (GABAA-α5 receptors; [6]): 82.1%
Receptor occupancy, Hippocampus (GABAA-α5 receptors; [6]): 94.9%
Receptor occupancy, Insular cortex (GABAA-α5 receptors; [6]): 82.2%
Receptor occupancy, Mean (GABAA-α5 receptors; [6]): 90.06%
Receptor occupancy, Accumbens (GABAA-α5 receptors; [7]): 29.6%
Receptor occupancy, Amygdala (GABAA-α5 receptors; [7]): 30.9%
Receptor occupancy, Anterior cingulate (GABAA-α5 receptors; [7]): 26.2%
Receptor occupancy, Hippocampus (GABAA-α5 receptors; [7]): 26.8%
Receptor occupancy, Insular cortex (GABAA-α5 receptors; [7]): 26.7%
Receptor occupancy, Mean (GABAA-α5 receptors; [7]): 28.04%
Receptor occupancy, Accumbens (GABAA-α5 receptors; [8]): 31.8%
Receptor occupancy, Amygdala (GABAA-α5 receptors; [8]): 34.7%
Receptor occupancy, Anterior cingulate (GABAA-α5 receptors; [8]): 31.7%
Receptor occupancy, Hippocampus (GABAA-α5 receptors; [8]): 35.8%
Receptor occupancy, Insular cortex (GABAA-α5 receptors; [8]): 31.7%
Receptor occupancy, Mean (GABAA-α5 receptors; [8]): 33.14%
Receptor occupancy, Accumbens (GABAA-α5 receptors; [9]): 64.2%
Receptor occupancy, Amygdala (GABAA-α5 receptors; [9]): 63.5%
Receptor occupancy, Anterior cingulate (GABAA-α5 receptors; [9]): 55.8%
Receptor occupancy, Hippocampus (GABAA-α5 receptors; [9]): 63%
Receptor occupancy, Mean (GABAA-α5 receptors; [9]): 60.86%
